Results reported in ChEMBL document CHEMBL1143353, “Pyrazolo[1,5-a]-1,3,5-triazine as a purine bioisostere: access to potent cyclin-dependent kinase inhibitor (R)-roscovitine analogue” (J Med Chem, 2009).

Legend:
[1] = target: Cyclin-dependent kinase 7/ cyclin H (Homo sapiens, UniProt P50613); assay: Inhibition of human recombinant CDK7/cyclin H expressed in baculovirus-infected insect cells
HEK293 = assay: Antiproliferative activity against human HEK293 cells after 48 hrs by MTS reduction assay; format: cell-based; conditions: HEK293, 48 h
SH-SY5Y = assay: Antiproliferative activity against human SH-SY5Y cells after 48 hrs by MTS reduction assay; format: functional, cell-based
[2] = target: Cyclin-dependent kinase 2 (Homo sapiens, UniProt P24941); assay: Inhibition of human recombinant CDK2/cyclin A expressed in baculovirus-infected insect cells
[3] = Inhibition of starfish oocytes CDK1/cyclin B; design: species or system Marthasterias glacialis; conditions: oocyte
[4] = target: Cyclin-dependent kinase 5/CDK5 activator 1 (Homo sapiens, UniProt Q00535)
Description: Inhibition of human recombinant CDK5/p25 expressed in Escherichia coli

CDK9/cyclin T1 = CDK9/cyclin T1 (Homo sapiens, UniProt P50750); assay: Inhibition of human recombinant CDK9/cyclin T expressed in baculovirus-infected insect cells
CDK9/cyclin T1, sequence (O60563 whole entry): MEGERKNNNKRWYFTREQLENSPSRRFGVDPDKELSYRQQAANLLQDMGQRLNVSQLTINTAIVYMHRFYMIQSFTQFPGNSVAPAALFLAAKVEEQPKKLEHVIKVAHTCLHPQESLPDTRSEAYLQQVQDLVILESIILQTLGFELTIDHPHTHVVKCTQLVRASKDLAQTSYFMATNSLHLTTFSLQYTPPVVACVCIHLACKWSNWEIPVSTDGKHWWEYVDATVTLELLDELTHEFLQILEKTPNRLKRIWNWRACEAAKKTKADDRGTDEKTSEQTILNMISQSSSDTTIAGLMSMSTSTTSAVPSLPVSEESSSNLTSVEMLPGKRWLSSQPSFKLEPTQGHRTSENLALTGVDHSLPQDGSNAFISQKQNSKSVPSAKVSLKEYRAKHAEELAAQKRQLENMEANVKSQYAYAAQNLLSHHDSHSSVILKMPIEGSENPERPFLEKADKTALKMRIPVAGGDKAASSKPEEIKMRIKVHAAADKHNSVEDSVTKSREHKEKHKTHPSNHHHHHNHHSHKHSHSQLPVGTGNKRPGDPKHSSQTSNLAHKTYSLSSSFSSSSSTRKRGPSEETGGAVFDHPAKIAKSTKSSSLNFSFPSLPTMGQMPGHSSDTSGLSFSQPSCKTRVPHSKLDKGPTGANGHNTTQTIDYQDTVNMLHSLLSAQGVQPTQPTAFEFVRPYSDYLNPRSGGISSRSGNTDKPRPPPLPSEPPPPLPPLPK
CDK9/cyclin T1, sequence (P50750 whole entry): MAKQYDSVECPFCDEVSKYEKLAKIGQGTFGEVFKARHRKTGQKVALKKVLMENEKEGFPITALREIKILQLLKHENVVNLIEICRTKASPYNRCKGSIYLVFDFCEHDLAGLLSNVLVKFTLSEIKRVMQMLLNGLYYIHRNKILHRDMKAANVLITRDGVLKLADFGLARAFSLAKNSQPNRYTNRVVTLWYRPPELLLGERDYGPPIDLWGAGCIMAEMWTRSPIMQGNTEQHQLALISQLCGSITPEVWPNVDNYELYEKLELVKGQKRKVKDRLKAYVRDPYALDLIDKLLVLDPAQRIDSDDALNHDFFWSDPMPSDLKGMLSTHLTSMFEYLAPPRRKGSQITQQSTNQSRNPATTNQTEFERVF

Cyclin-dependent kinase 5/CDK5 activator 1, sequence (Q00535 whole entry): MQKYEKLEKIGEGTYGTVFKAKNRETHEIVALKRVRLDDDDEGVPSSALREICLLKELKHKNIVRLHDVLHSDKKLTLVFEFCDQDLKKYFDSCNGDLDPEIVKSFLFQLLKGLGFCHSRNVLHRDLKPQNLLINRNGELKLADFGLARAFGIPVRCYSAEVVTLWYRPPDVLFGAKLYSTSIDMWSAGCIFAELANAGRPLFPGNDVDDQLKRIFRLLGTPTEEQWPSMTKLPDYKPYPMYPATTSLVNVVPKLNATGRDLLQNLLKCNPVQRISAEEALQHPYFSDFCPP
Cyclin-dependent kinase 5/CDK5 activator 1, sequence (Q15078 whole entry, further chain): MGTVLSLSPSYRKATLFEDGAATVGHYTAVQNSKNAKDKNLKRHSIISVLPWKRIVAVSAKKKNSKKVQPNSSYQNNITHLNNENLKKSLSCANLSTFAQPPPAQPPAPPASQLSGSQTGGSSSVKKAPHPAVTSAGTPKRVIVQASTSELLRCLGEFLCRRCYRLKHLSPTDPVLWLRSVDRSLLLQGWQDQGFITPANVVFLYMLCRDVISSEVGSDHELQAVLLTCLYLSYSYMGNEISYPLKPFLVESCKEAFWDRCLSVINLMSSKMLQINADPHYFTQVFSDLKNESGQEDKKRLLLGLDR
Cyclin-dependent kinase 7/ cyclin H, sequence (P51946 whole entry): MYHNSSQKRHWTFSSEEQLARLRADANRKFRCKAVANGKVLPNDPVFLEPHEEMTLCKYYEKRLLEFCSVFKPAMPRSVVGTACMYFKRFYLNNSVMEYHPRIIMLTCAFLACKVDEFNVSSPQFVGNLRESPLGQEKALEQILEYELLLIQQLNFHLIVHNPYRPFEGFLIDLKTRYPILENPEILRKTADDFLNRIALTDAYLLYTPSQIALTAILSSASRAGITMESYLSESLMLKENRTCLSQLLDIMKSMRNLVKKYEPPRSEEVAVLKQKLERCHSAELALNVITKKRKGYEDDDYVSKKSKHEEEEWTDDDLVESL
Cyclin-dependent kinase 7/ cyclin H, sequence (P50613 whole entry): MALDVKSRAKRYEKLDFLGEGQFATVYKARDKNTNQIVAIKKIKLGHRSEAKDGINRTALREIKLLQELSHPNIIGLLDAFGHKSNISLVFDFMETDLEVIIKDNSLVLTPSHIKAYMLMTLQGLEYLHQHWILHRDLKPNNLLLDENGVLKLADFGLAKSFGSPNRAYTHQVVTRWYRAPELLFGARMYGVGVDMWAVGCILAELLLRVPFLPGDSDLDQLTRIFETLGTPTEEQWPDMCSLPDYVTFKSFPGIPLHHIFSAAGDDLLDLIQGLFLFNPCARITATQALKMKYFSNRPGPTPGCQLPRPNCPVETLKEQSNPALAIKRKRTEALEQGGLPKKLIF

| Compound | IC50 [1] | IC50 (HEK293) | IC50 (SH-SY5Y) | IC50 [2] | IC50 [3] | IC50 [4] | IC50 (CDK9/cyclin T1) |
| --- | --- | --- | --- | --- | --- | --- | --- |
| CC[C@H](CO)Nc1nc(NCc2ccccc2)c2ncc(C(C)C)n2n1 | 0.6 µM | 26.8 µM | 15.4 µM | 0.22 µM | 0.4 µM | 0.32 µM | 0.2 µM |
| CC[C@@H](CO)Nc1nc(NCc2ccccc2)n2ncc(C(C)C)c2n1 | – | 7.2 µM | 2 µM | – | – | 0.13 µM | – |
